For assay [1], the system named is symmetric di-methyl arginine in Z-138 cells. Put plainly: Z-138 Methylation Assay (In Cell Western for symmetric di-methyl arginine and DNA content). Type of assay: cell-based. The following applies: Homo sapiens, read-out: ICW EC50. The method, boiled down: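 Z-138 cells (50,000 cells/mL) treated with compound 96 h at 37 °C, then fixed and stained for symmetric di-methyl arginine (800 nm) with DRAQ5 DNA counterstain (700 nm) on Licor Odyssey.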

The test system of another assay is Z-138 cell line. Put plainly: Z-138 Proliferation Assay (Cell Titer Glo, 5 days). Type of assay: cell-based. The note with it: Homo sapiens, 120 h; Z-138 cells, 5 days; read-out: Proliferation EC50. The gist of the method:
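Z-138 cells exposed 5 days at 37 °C, 5% CO2 to nine-point 3-fold dilutions (final top 20 μM, 0.2% DMSO), in triplicate. Viability read as ATP by CellTiter-Glo luminescence; IC50 from 4-parameter fit of normalized dose-response curves.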
Background: In ATP-based viability assays light output follows the ATP content of the culture.

For the compound `CN(CCNc1cc(C(=O)NC[C@H](O)CN2CCc3ccccc3C2)ccn1)S(C)(=O)=O` [Compound 262], the EC50 in assay [1] is less than 100 nM; in the assay on Z-138 cell line, 101 to 1000 nM.

As to `CN(CCN(C)S(C)(=O)=O)c1cc(C(=O)NC[C@H](O)CN2CCc3ccccc3C2)ccn1` [Compound 263], the results for the EC50 (in assay [1]; in the assay with Z-138 cell line) were less than 100 nM and 1000 to 10000 nM, respectively.

Take `CN1CCCC(CNc2cc(C(=O)NC[C@H](O)CN3CCc4ccccc4C3)ccn2)C1` (some centres unmarked) [Compound 264]: the EC50 was less than 100 nM in assay [1] and 1000 to 10000 nM in the assay on Z-138 cell line.

On to `CN1CCOC(CNc2cc(C(=O)NC[C@H](O)CN3CCc4ccccc4C3)ccn2)C1` (some centres unmarked) [Compound 265], for which the EC50 was in the range of 101 to 1000 nM in assay [1] and 1000 to 10000 nM in the assay on Z-138 cell line.

On to `CC(=O)N1CC[C@H](Nc2cccc(C(=O)NC[C@H](O)CN3CCc4ccccc4C3)c2)C1` [Compound 266], for which the EC50 is less than 100 nM in assay [1] and 101 to 1000 nM in the assay with Z-138 cell line.

`CS(=O)(=O)N1CC[C@@H](Nc2cccc(C(=O)NC[C@H](O)CN3CCc4ccccc4C3)c2)C1` [Compound 267]: the EC50 in assay [1] was less than 100 nM; in the assay on Z-138 cell line it was 101 to 1000 nM.

Turning to `CS(=O)(=O)N1CC[C@H](Nc2cccc(C(=O)NC[C@H](O)CN3CCc4ccccc4C3)c2)C1` [Compound 268], the figures for the EC50 (in assay [1]; in the assay on Z-138 cell line) were less than 100 nM and 101 to 1000 nM, respectively.

Turning to `O=C(NC[C@H](O)CN1CCc2ccccc2C1)c1cc2ccccc2[nH]1` [Compound 269], the EC50 in assay [1] is less than 100 nM; in the assay with Z-138 cell line, 1000 to 10000 nM.

For the compound `O=C(NC[C@H](O)CN1CCc2ccccc2C1)c1cc2ccccc2o1` [Compound 271], the EC50 in assay [1] fell in the range of 101 to 1000 nM; in the assay on Z-138 cell line, 1000 to 10000 nM.

As to `O=C(NC[C@H](O)CN1CCc2ccccc2C1)c1nccc2ccccc12` [Compound 272], the results for the EC50 (in assay [1]; with Z-138 cell line) were less than 100 nM and 1000 to 10000 nM, respectively.

With `O=C(NC[C@H](O)CN1CCc2ccccc2C1)c1ccc2ncsc2c1` [Compound 273], the values for the EC50 (in assay [1]; in the assay on Z-138 cell line) were 101 to 1000 nM and 1000 to 10000 nM, respectively.

For the compound `O=C(NC[C@H](O)CN1CCc2ccccc2C1)c1ccc2c(c1)OCCO2` [Compound 274], the EC50 fell in the range of 101 to 1000 nM in assay [1] and 1000 to 10000 nM in the assay with Z-138 cell line.

Take `Cc1cc2ncc(C(=O)NC[C@H](O)CN3CCc4ccccc4C3)c(C)n2n1` [Compound 275]: the EC50 in assay [1] lay within 101 to 1000 nM; with Z-138 cell line it was 1000 to 10000 nM.

On to `O=C(NC[C@H](O)CN1CCc2ccccc2C1)c1cc2cccc(Cl)c2[nH]1` [Compound 276], for which the EC50 in assay [1] lay in the range of 101 to 1000 nM; with Z-138 cell line, 1000 to 10000 nM.

With `CN(CCOc1cccc(C(=O)NCC(O)CN2CCc3ccccc3C2)c1)CC(N)=O` (centres unmarked) [Compound 277], the EC50 was less than 100 nM in assay [1] and 1000 to 10000 nM with Z-138 cell line.

In the case of `CS(=O)(=O)N1CC(Nc2cc(C(=O)NC[C@H](O)CN3CCc4ccccc4C3)ccn2)C1` [Compound 278], the values for the EC50 (in assay [1]; in the assay on Z-138 cell line) were less than 100 nM and 101 to 1000 nM, respectively.

For the compound `CC(=O)N1CC(Nc2cc(C(=O)NC[C@H](O)CN3CCc4ccccc4C3)ccn2)C1` [Compound 279], the EC50 (in assay [1]; with Z-138 cell line) was less than 100 nM throughout.

With `O=C(NC[C@H](O)CN1CCc2ccccc2C1)c1cc(NC2CNC2)ncn1` [Compound 280], the figures for the EC50 (in assay [1]; in the assay on Z-138 cell line) were less than 100 nM and 101 to 1000 nM, respectively.

Consider `CN1CC(Nc2cc(C(=O)NC[C@H](O)CN3CCc4ccccc4C3)ncn2)C1` [Compound 281], for which the EC50 fell in the range of 101 to 1000 nM in assay [1] and 10000 to 50000 nM in the assay on Z-138 cell line.

Turning to `O=C(NC[C@H](O)CN1CCc2ccccc2C1)c1cc(NC2CN(CC(F)(F)F)C2)ncn1` [Compound 282], the EC50 in assay [1] is less than 100 nM; in the assay with Z-138 cell line, 1000 to 10000 nM.

Consider `CS(=O)(=O)N1CC(Nc2cc(C(=O)NC[C@H](O)CN3CCc4ccccc4C3)ncn2)C1` [Compound 283], for which the EC50 in assay [1] is less than 100 nM; in the assay with Z-138 cell line it was 101 to 1000 nM.

Consider `CC(=O)N1CC(Nc2cc(C(=O)NC[C@H](O)CN3CCc4ccccc4C3)ncn2)C1` [Compound 284, (S)-6-((1-acetylazetidin-3-yl)amino)-N-(3-(3,4-dihydroisoquinolin-2(1H)-yl)-2-hydroxypropyl)pyrimidine-4-carboxamide], for which the EC50 (in assay [1]; with Z-138 cell line) was less than 100 nM each time.

The record behind these values is patent US10307413B2, “Tetrahydro- and dihydro-isoquinoline PRMT5 inhibitors and uses thereof” (Epizyme, Inc., priority 2013, dated 2019).
